Assay results as given in ChEMBL document CHEMBL5303573, “Mapping human microbiome drug metabolism by gut bacteria and their genes” (Nature, 2019).

Columns and labels:
[1] = The drug is tested on Collinsella intestinalis strain: DSM13280 for biotransformation. The drug concentrations were measured before and after a 12-h incubation by liquid-chromatography-coupled mass spectrometry (LC–MS); conditions: 2 µM
[2] = The drug is tested on Alistipes indistinctus strain: DSM22520 for biotransformation. The drug concentrations were measured before and after a 12-h incubation by liquid-chromatography-coupled mass spectrometry (LC–MS); conditions: 2 µM
[3] = The drug is tested on Bacteroides fragilis strain: ATCC43859 for biotransformation. The drug concentrations were measured before and after a 12-h incubation by liquid-chromatography-coupled mass spectrometry (LC–MS); conditions: 2 µM
[4] = parabacteroides johnsonii, 12 h, 2 µM
Description: The drug is tested on Parabacteroides johnsonii strain: DSM18315 for biotransformation. The drug concentrations were measured before and after a 12-h incubation by liquid-chromatography-coupled mass spectrometry (LC–MS)

[5] = victivallis vadensis, 12 h, 2 µM
Description: The drug is tested on Victivallis vadensis strain: ATCC BAA-548 for biotransformation. The drug concentrations were measured before and after a 12-h incubation by liquid-chromatography-coupled mass spectrometry (LC–MS)

[6] = akkermansia muciniphila, 12 h, 2 µM
Description: The drug is tested on Akkermansia muciniphila strain: ATCC BAA-835 for biotransformation. The drug concentrations were measured before and after a 12-h incubation by liquid-chromatography-coupled mass spectrometry (LC–MS)

[7] = The drug is tested on Eggerthella lenta strain: ATCC25559 for biotransformation. The drug concentrations were measured before and after a 12-h incubation by liquid-chromatography-coupled mass spectrometry (LC–MS); conditions: 2 µM

Row | Structure (SMILES) | Bacterial Biotransformation [1] | Bacterial Biotransformation [2] | Bacterial Biotransformation [3] | Bacterial Biotransformation [4] | Bacterial Biotransformation [5] | Bacterial Biotransformation [6] | Bacterial Biotransformation [7]
1 | CCCCCNC(=N)N/N=C/c1c[nH]c2ccc(OC)cc12.O=C(O)/C=C\C(=O)O [TEGASEROD MALEATE] | Compound NOT metabolized | Compound NOT metabolized | Compound NOT metabolized | Compound NOT metabolized | Compound NOT metabolized | Compound NOT metabolized | 
2 | CS(=O)(=O)O.OC(CCN1CCCCC1)(c1ccccc1)c1ccccc1 [PRIDINOL METHANESULFONATE] | Compound NOT metabolized |  |  |  | Compound NOT metabolized | Compound NOT metabolized | Compound NOT metabolized
3 | COc1ccc(CN2CCNCC2)c(OC)c1OC.Cl.Cl [TRIMETAZIDINE DIHYDROCHLORIDE] | Compound NOT metabolized | Compound NOT metabolized |  | Compound metabolized | Compound NOT metabolized | Compound NOT metabolized | Compound NOT metabolized
4 | CNNCc1ccc(C(=O)NC(C)C)cc1 [PROCARBAZINE] | Compound NOT metabolized | Compound NOT metabolized | Compound metabolized | Compound metabolized | Compound NOT metabolized | Compound NOT metabolized | 
5 | CC(C)c1nc(CN(C)C(=O)N[C@H](C(=O)N[C@@H](Cc2ccccc2)C[C@H](O)[C@H](Cc2ccccc2)NC(=O)OCc2cncs2)C(C)C)cs1 [RITONAVIR] | Compound NOT metabolized | Compound NOT metabolized |  | Compound NOT metabolized | Compound NOT metabolized | Compound NOT metabolized | Compound NOT metabolized
6 | CCCCCCOC(=O)/N=C(/N)c1ccc(NCc2nc3cc(C(=O)N(CCC(=O)OCC)c4ccccn4)ccc3n2C)cc1.CS(=O)(=O)O [DABIGATRAN ETEXILATE MESYLATE] | Compound NOT metabolized | Compound NOT metabolized |  |  | Compound NOT metabolized | Compound NOT metabolized | Compound NOT metabolized
7 | Cc1ccc(-c2nc3ccc(C)cn3c2CC(=O)N(C)C)cc1 [ZOLPIDEM] | Compound NOT metabolized | Compound NOT metabolized |  |  | Compound NOT metabolized | Compound NOT metabolized | Compound NOT metabolized
8 | C[C@]12C=CC(=O)C=C1CC[C@@H]1[C@@H]2C(=O)C[C@@]2(C)[C@H]1CC[C@]2(O)C(=O)CO [PREDNISONE] | Compound NOT metabolized | Compound NOT metabolized | Compound NOT metabolized | Compound NOT metabolized | Compound NOT metabolized | Compound NOT metabolized | 
9 | CC(C)c1nc(N(C)S(C)(=O)=O)nc(-c2ccc(F)cc2)c1/C=C/[C@@H](O)C[C@@H](O)CC(=O)[O-].CC(C)c1nc(N(C)S(C)(=O)=O)nc(-c2ccc(F)cc2)c1/C=C/[C@@H](O)C[C@@H](O)CC(=O)[O-].[Ca+2] [ROSUVASTATIN CALCIUM] | Compound NOT metabolized | Compound NOT metabolized | Compound NOT metabolized |  | Compound NOT metabolized |  | 
10 | N=C(N)NC(=O)Cc1c(Cl)cccc1Cl [GUANFACINE] | Compound NOT metabolized |  | Compound NOT metabolized | Compound NOT metabolized | Compound NOT metabolized |  | 
11 | C#C[C@]1(OC(C)=O)CC[C@H]2[C@@H]3CCC4=C[C@@H](OC(C)=O)CC[C@@H]4[C@H]3CC[C@@]21C [ETHYNODIOL DIACETATE] | Compound NOT metabolized |  |  |  | Compound NOT metabolized | Compound NOT metabolized | Compound NOT metabolized
